Reference: patent publication US20010046684A1, “Methods of structure-based drug design using MS/MNR” (priority 2000, published 2001)
pIC50: −log10 of the molar value.

How the values were obtained:
[1] = target: T1, MMP-1 (Homo sapiens, UniProt P03956); conditions: Inhibitors of MMP-1; compounds having known affinities, previously tested; cited from earlier work
T1 sequence (P03956 100-469): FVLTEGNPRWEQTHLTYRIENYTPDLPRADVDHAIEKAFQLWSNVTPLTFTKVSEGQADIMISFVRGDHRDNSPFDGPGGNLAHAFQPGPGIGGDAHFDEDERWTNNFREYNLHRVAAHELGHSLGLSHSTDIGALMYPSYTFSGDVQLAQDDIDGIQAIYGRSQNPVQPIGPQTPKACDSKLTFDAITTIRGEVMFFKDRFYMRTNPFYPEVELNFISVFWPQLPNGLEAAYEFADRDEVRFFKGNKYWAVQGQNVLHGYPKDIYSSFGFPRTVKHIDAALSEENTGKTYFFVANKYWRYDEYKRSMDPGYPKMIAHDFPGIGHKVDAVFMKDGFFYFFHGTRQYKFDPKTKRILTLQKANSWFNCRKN

[2] = target: T2, MMP-1 (Homo sapiens, UniProt P03956); assay: 2D 1H-15N HSQC NMR chemical shift perturbation of 15N-MMP-1; format: binding; conditions: 0.2 mM 15N-MMP-1, compound 0.2-4.0 mM, pH 6.5, 35° C.
T2 construct: made in house
T2 sequence (P03956 101-269 limits assumed): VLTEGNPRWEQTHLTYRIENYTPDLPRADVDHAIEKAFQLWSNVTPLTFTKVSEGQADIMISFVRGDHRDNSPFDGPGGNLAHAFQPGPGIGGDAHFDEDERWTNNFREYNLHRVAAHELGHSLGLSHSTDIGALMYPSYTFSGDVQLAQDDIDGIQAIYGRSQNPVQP
Experimental: MMP-1 was labeled as described in Moy, J. Biomol. NMR, Vol. 10: 9-19 (1997). […] The 2D ^1H—^15N HSQC spectra were recorded with 256 complex points in t1, 2048 real points in t2, and 192 scans per increment. Spectra windows for t1 and t2 were 1723.7 and 8064.5 Hz, respectively, with the carrier at 4.75 and 115.2 ppm, respectively. Data were processed and analyzed using NMRPipe, NMRWish [F. Delaglio, S. Grzesiek, G. W. Vuister, G. Zhu, J. Pfeifer, and A. Bax J. Biomol. NMR 6, 277 (1995). ] and PIPP [D. S. Garrett, R. Powers, A. M. Gronenborn, and G. M. Clore J. Magn. Reson. 95, 214-20 (1991).] on a Sun Ultra 10 workstation. […] (FIG. 4A, 4B, 4C), i.e. stronger binding contributes to greater perturbations and weaker binding to less perturbations.

[3] = target: T1, MMP-1; assay: Gel-filtration (Sephedex G25) / ESI mass spectral analysis of binding to MMP-1; conditions: 1 mM compound, 0.1 mM MMP-1, pH 6.5, room temperature, 30 minutes; unbound compound alone is retained
Experimental: 1 mM each of compounds 1, 2 and 3 (Table 1) were dissolved in DMSO and each incubated alone or in the presence of MMP-1 at a 0.1 mM in a buffer consisting of 20 mM Tris, 100 mM NaCl, 5 mM CaCl2, 0.1 mM ZnCl2, 2 mM NaN3 and 3.5 mM DTT at pH 6.5 at room temperature for 30 minutes. The final concentration of DMSO in the MMP-1:compound mixture was 5%. A total volume of 25 μl of each sample was loaded on a Sephedex G25 column in a Millipore multiscreen filtration system composed of a 0.65 μm hydrophilic durapore filter. The samples were eluted using centrifugation (15,000×g for 3 minutes). Samples were collected and analyzed by mass spectroscopy using automated ESI/MS methods in both positive and negative ionization modes with a Micromass LCT quadrapole time of flight mass spectrometer and Quattro I triple-quadrapole mass spectrometer each equipped with a Gilson 215 liquid handler.

Row | Elution of compound through size-exclusion column in presence of MMP-1 (binding detected by ESI/MS) [3] | Molecule | pIC50 [1] | Chemical shift perturbations in 2D 1H-15N HSQC spectrum of MMP-1 [2]
1 |  | COc1ccc(S(=O)(=O)C(CCC(C)C)(Cc2cccnc2)C(=O)NO)cc1 (centres unmarked) [Compound 7, 2-(4-Methoxy-benzenesulfonyl)-5-methyl-2-pyridin-3-ylmethyl-hexanoic acid hydroxyamide] | 6.12 | 
2 |  | 3-[4-(2-Azepan-1-yl-ethoxy)-phenyl]-N-hydroxy-2-(4-methoxy-benzenesulfonyl)-2-propionamide [Compound 13] | 6.27 | 
3 |  | Cc1cc(Br)cc(C(=O)NO)c1N(C)S(=O)(=O)c1ccc2ccccc2c1 [Compound 11, 5-Bromo-N-hydroxy-3-methyl-2-[methyl-(naphthalene-2-sulfonyl)-amino]-benzamide] | 5.96 | 
4 |  | COc1ccc(S(=O)(=O)N(Cc2ccccc2)c2ccc(C)cc2C(=O)NO)cc1 [Compound 4, 2-[Benzyl-(4-methoxy-benzenesulfonyl)-amino]-N-hydroxy-5-methyl-benzamide] | 6.39 | 
5 | compound bound to MMP-1 is eluted | COc1ccc(S(=O)(=O)N(Cc2cccnc2)c2c(C(=O)O)cccc2C(=O)NO)cc1 [Compound 2, N-Hydroxy-2-[(4-methoxy-benzenesulfonyl)-pyridin-3-ylmethyl-amino]-isophthalamic acid] | 5.00 | induce chemical shift perturbations for residues in the vicinity of the catalytic Zn and S1′ pocket in the MMP-1 active site
6 | compound bound to MMP-1 is eluted | COc1ccc(S(=O)(=O)N(CC(=O)O)c2c(C)cccc2C(=O)NO)cc1 [Compound 3, [(2-Hydroxycarbamoyl-6-methyl-phenyl)-(4-methoxy-benzenesulfonyl)-amino)-acetic acid] | 4.05 | induce chemical shift perturbations for residues in the vicinity of the catalytic Zn and S1′ pocket in the MMP-1 active site
7 | compound bound to MMP-1 is eluted | COc1ccc(S(=O)(=O)N(Cc2cccnc2)[C@@H](C(=O)NO)C(C)C)cc1 [Compound 1, N2-(4-Methoxy-benzenesulfonyl)-N2-[(pyridin-3-yl)methyl]-N-hydroxy-D-valinamide] |  | 
